Entries after “also recorded” stand apart in the source; their conditions may differ. Marks after values point to notes of the source that are not given here.
Key:
[1] = test system: lymphocyte DNA; assay: Hydrogen peroxide induced lymphocyte DNA damage, comet assay; assay type: in vivo, human; settings: for hydrogen peroxide induced lymphocyte DNA damage: DNA challenged with 10 μM H2O2 for 10 min, Means ± SD; for H2O2 induced DNA damage compared to day 1: after 56-day intervention (d 57), H2O2 10 micromolar for 10 min, p<0.05
Protocol: (§1) A study was undertaken to evaluate the effectiveness of the composition of the present invention and its effect on the patients. Thirty-seven healthy non-smoking post-menopausal women (50˜70 yr) were randomly assigned to one of 5 groups, to take a daily dose of mixed carotenoids (β-carotene, lutein and lycopene, 4 mg each), or 12 mg of single carotenoid (β-carotene, lutein or lycopene), or placebo for 8 weeks. Plasma carotenoid concentrations were analyzed by an HPLC system with a C30 column, and lymphocyte DNA damage was determined by a single cell gel electrophoresis (comet) assay.
(§2) From the second day of intervention, subjects took either 1) placebo, 2) 4 mg of lutein, 4 mg of β-carotene and 4 mg of lycopene, 3) 12 mg of lutein, 4) 12 mg of β-carotene, or 5) 12 mg of lycopene. On study days 15, 29, 43, and 57, overnight fasting bloods (10 mL) were collected, and 1) plasma carotenoids, 2) antioxidant capacity in both the aqueous and lipid compartments, 3) lipid peroxidation, and 4) DNA damage will be measured in these samples. In addition, 70 mL of fasting blood was collected at days 1 and 57 for the analysis of gene expression profiling in peripheral blood mononuclear cells using high-density filter-based cDNA microarrays. On study day 57, an additional 3 ml of blood was collected to measure the hemoglobin level.
(§3) DNA breaks and oxidized pyrimidine bases were measured using the alkaline comet assay (Duthie et al Cancer Res 1996; 56:1291-1295). The comet assay, also called the Single Cell Gel Assay, was used to detect DNA damage and repair at the level of single cells. The Comet Assay is a rapid, sensitive test for DNA damage detection (e.g., single- and double-strand breaks, oxidative-induced base damage, and DNA-DNA/DNA-protein cross linking) by electrophoresis. The Comet Assay involves the following steps: 1. Slide preparation (i.e., mixing of cells with low melting agarose, and spread over glass microscope slides); 2. Lysis: (i.e., lysis of cell membrane and other proteins); 3. Unwinding of DNA; 4. Electrophoresis; 5. Neutralization; and 6. Staining and scoring. Cells embedded in agarose on a microscope slide are lysed with non-ionic detergent and high salt, leaving supercoiled matrix-attached DNA in a nucleoid. Under alkaline electrophoresis, DNA with breaks extends towards the anode, forming a “comet tail” when viewed by fluorescence microscopy. The percentage of total fluorescence in the tail is linearly related to DNA break frequency up to about 2 per 10^9 daltons.
(§4) Lymphocyte separation: Lymphocytes were separated immediately after blood samples were collected. Lymphocytes were isolated by density gradient sedimentation (Histopaque 1077, Sigma diagnostic, St. Louis, USA) and frozen in 50% fetal calf serum, 40% culture medium (RPMI 1640, Sigma diagnostic, St. Louis, USA ) and 10% dimethyl sulfoxide to −-80° C. at −1° C./min freezing rate before store in liquid nitrogen.
(§5) Cryopreserved lymphocytes recovery: Cells were recovered by submerging in 37° C. water bath until last trace of ice has melted. Cells were transferred to prechilled 50% RPMI 1640 medium and 50% fetal calf serum and centrifuged at 200 g for 5 min at 4° C. Cells were resuspended in cold PBS and checked for viability (typically 95% viability) and cell number (typically 1×10^5 cells/mL). The lymphocytes of five time points (d1, 15, 29, 43 & 57) were recovered at the same time.
(§6) Alkaline single cell gel electrophoresis: DNA strand breaks were measured in lymphocytes with the alkaline single cell gel electrophoresis, comet assay, (Collins A R. Methods Mol Biol 2002; 203:163-77) with minor modifications. The endogenous DNA damage as well as hydrogen peroxide challenged DNA damage were determined by exposing the agarose embedded with cells to PBS or H2O2 in PBS (10 μM) for 10 min respectively.
(§7) Quantitation of DNA damage: The DNA damage was determined by visual image analysis (Collins A R et al. Methods Mol Biol 2002; 186:147-59). […]

[2] = test system: lymphocyte DNA; assay: Basal (endogenous) lymphocyte DNA damage, alkaline single cell gel electrophoresis (comet) assay; assay type: in vivo, human; settings: for basal lymphocyte DNA damage: women 50-70 yr, mixed 4 mg each/d, single carotenoid 12 mg/d, Means ± SD; for basal DNA damage, percent of comet tail ratio (each day value divided by day 1): d 57, different from placebo p<0.005, FIG. 6; for basal (endogenous) DNA damage compared to day 1: day 15
Protocol: as §1, §2, §3, §4, §5, §6, §7

[3] = set-up: species or system human; settings: in vivo
Protocol: as §1
Subjects (50-70 yr, n=37) were housed at the MRU for the first two days of the study. On the first day of the study, subjects were randomly assigned to take either 1) placebo, 2) 4 mg each of lutein, β-carotene and lycopene, 3) 4 mg of lutein, 4) 4 mg of β-carotene, or 5) 4 mg of lycopene with a meal containing 25 g of fat. Subjects were provided with a two-week supply of placebo or carotenoids along with instructions how to consume the supplements while being maintained with a low carotenoid diet on each sampling day (days 1, 15, 29 & 43). In particular, they were instructed to take the carotenoid supplements with their first meal of the day, and this food source should include 10 g of fat to insure maximum absorption of the carotenoid supplement. 10 mL of blood will be drawn at 0 (fasting), 2, 4, 6, 8, 10, 12 and 14 hours after the carotenoid dose to obtain information on the early kinetics of carotenoid absorption and tissue uptake. The subjects had the option to have an intravenous line inserted for blood drawing (I.V.). If they chose this option, 12 mL of blood was drawn for each sample and the first 2 mL of blood was discarded. Chylomicrons (the triglyceride-rich fraction of plasma) were isolated and analyzed for carotenoids to determine the plasma response kinetics in these 14 hr samples. Thereafter, subjects were discharged from the HNRC with a two-week supply of placebo or carotenoids along with instructions on how to consume the doses while being maintained on a low carotenoid diet.
as §2
Plasma carotenoid concentrations were measured by a HPLC system as previously described with minor modification (Yeum K J et al. Am J Clin Nutr 1996; 64:594-602). Plasma sample (200 μL) was extracted with 2 mL of chloroform:methanol (2: 1) followed by 3 mL of hexane. Samples were dried under nitrogen and resuspended in 75 μL ethanol:methyl tert-butyl ether (2:1) of which 25 μL was injected onto the HPLC. The HPLC system consisted of a Waters 2695 Separation Module, 2996 Photodiode Array Detector, a Waters 2475 Multi X Fluorescence Detector, a C30 carotenoid column (3 μm, 150×3.0 mm, YMC, Wilmington, N.C.), and a Waters Millenium 32 data station. The mobile phase was methanol:methyl tert-butyl ether:water (85:12:3 with 1.5% ammonium acetate in water; […]) and methanol:methyl tert-butyl ether:water (8:90:2 with 1% ammonium acetate in water; […]). The gradient procedure has been reported earlier (Yeum K J et al. Am J Clin Nutr 1996; 64:594-602). Results were adjusted by an internal standard containing echinenone and retinyl acetate. The CV for interassay (n=25) is 4% and intra assay Is 4% (n=9). […]

| plasma lycopene concentrations, change [3] | plasma β-carotene levels, change [3] | plasma lutein levels, change [3] | Compound | hydrogen peroxide induced lymphocyte DNA damage ([1]; Day 01 (baseline)) [%] | hydrogen peroxide induced lymphocyte DNA damage ([1]; Day 15) [%] | hydrogen peroxide induced lymphocyte DNA damage ([1]; Day 29) [%] | hydrogen peroxide induced lymphocyte DNA damage ([1]; Day 43) [%] | hydrogen peroxide induced lymphocyte DNA damage ([1]; Day 57) | H2O2 induced DNA damage compared to day 1 [1] | basal lymphocyte DNA damage ([2]; Day 01 (baseline)) [%] | basal lymphocyte DNA damage ([2]; Day 15) | basal lymphocyte DNA damage ([2]; Day 29) | basal lymphocyte DNA damage ([2]; Day 43) | basal lymphocyte DNA damage ([2]; Day 57) | basal DNA damage, percent of comet tail ratio (each day value divided by day 1) [2] | basal (endogenous) DNA damage compared to day 1 [2] |
| --- | --- | --- | --- | --- | --- | --- | --- | --- | --- | --- | --- | --- | --- | --- | --- | --- |
| significantly lower levels | did not show any increase | – | CC1=C[C@H](O)CC(C)(C)[C@H]1/C=C/C(C)=C/C=C/C(C)=C/C=C/C=C(C)/C=C/C=C(C)/C=C/C1=C(C)C[C@@H](O)CC1(C)C [Lutein, lutein] | 42.8 ± 6.8 | 43.5 ± 6.2 | 43.1 ± 5.6 | 41.5 ± 9.3 | 39.8 ± 8.4^a % | did not show any significant change | 10.6 ± 1.4 | 9.4 ± 2.1% | 9.5 ± 1.4% | 7.7 ± 1.5^b % | 7.1 ± 1.7*^c % | significantly decreased | – |
| significantly increased | did not show any increase | no increase | CC(C)=CCC/C(C)=C/C=C/C(C)=C/C=C/C(C)=C/C=C/C=C(C)/C=C/C=C(C)/C=C/C=C(\C)CCC=C(C)C [Lycopene, lycopene] | 50.5 ± 8.9 | 49.2 ± 10.1 | 51.1 ± 3.5 | 50.0 ± 6.5 | 42.5 ± 6.5^b % | significantly improved; also recorded: significantly decreased | 11.9 ± 2.6 | 10.0 ± 3.5^a % | 9.0 ± 2.6^a % | 7.5 ± 1.9^b % | 6.8 ± 1.6*^c % | significantly decreased | significantly decreased |
| significantly lower levels | – | no increase | CC1=C(/C=C/C(C)=C/C=C/C(C)=C/C=C/C=C(C)/C=C/C=C(C)/C=C/C2=C(C)CCCC2(C)C)C(C)(C)CCC1 [β-carotene] | 48.2 ± 6.1 | 44.5 ± 8.9 | 41.1 ± 6.2 | 44.2 ± 5.7 | 38.0 ± 4.8% | significantly improved; also recorded: significantly decreased | 12.4 ± 2.7 | 9.7 ± 2.4^b % | 8.6 ± 2.9^a % | 9.4 ± 2.4^a % | 8.0 ± 1.8^b % | significantly decreased | significantly decreased |

From patent US20070082044A1, “Synergistic effect of compositions comprising carotenoids selected from lutein, beta-carotene and lycopene” (TRUSTEES OF TUFTS COLLEGE, priority 2004, published 2007)
